Measured values reported in article PMC9596378, “Discovery and molecular basis of subtype-selective cyclophilin inhibitors” (Nature Chemical Biology, 2022).
Several values for one entry are separate records, joined by “and”; a condition that tells them apart may be missing. Equal entries are not always repeated. Where two headings read alike, the source gives them in different places.

How the values were obtained:
NKTR = target: T1, NKTR (Homo sapiens, UniProt P30414); experiment: Chymotrypsin coupled prolyl-isomerase assay; assay type: biochemical; conditions: for prolyl-isomerase activity (raw dose-response value): NKTR
T1 construct: NKTR (UniProtKB Entry P30414: residues 7–179); host or cells: E. coli BL21(DE3)
T1 sequence (P30414 7-179): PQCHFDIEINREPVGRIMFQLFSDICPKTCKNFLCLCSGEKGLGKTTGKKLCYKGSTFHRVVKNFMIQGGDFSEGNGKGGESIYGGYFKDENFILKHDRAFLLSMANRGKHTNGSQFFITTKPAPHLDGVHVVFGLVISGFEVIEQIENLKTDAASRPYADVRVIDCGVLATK

CypC = target: T2, CypC (Homo sapiens, UniProt P45877); experiment: Chymotrypsin coupled prolyl-isomerase assay; assay type: biochemical; conditions: for prolyl-isomerase activity (raw dose-response value): CypC, in s^-1
T2 construct: PPIC (UniProtKB Entry P45877: residues 24–212); host or cells: E. coli BL21(DE3)
Outline: (§1)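 5 nM Cyp, HEPES pH 7.3/NaCl/Triton buffer, 2–3 °C; cpd 5 min, chymotrypsin 25 µM 5 min, then Suc-AAPF-AMC 5 µM in LiCl/TFE. Kinetic fluorescence 330 s. Per-well rate constants, normalized, IC50 from nonlinear fit.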

CypE = target: T3, CypE (Homo sapiens, UniProt Q9UNP9); experiment: Chymotrypsin coupled prolyl-isomerase assay; assay type: biochemical; conditions: for prolyl-isomerase activity (raw dose-response value): CypE, in s^-1
T3 construct: PPIE (UniProtKB Entry Q9UNP9: residues 131–301); host or cells: E. coli BL21(DE3)
Outline: as §1

Cyp40 = Cyp40 (Homo sapiens, UniProt Q08752); experiment: Chymotrypsin coupled prolyl-isomerase assay; conditions: for prolyl-isomerase activity (raw dose-response value): in s^-1
Protocol: (§2) Adapting a previously described protocol, with an Agilent Bravo Velocity 11 with a 384ST head, 90 µL assay buffer (25 mM HEPES pH 7.3, 100 mM NaCl, 0.01% Triton X-100) containing 5.28 nM cyclophilin was added into a flat, clear-bottom, black 384-well plate pre-chilled in a Corning CoolBox at 2–3 °C. Five microliters of compound pre-dissolved in 5% DMSO/assay buffer was then added to appropriate wells and incubated at 2–3 °C for 5 min. Five microliters of 0.5 mM α-chymotrypsin from bovine pancreas (Type II, lyophilized powder, Millipore-Sigma) in 20% 1 mM HCl/Assay Buffer was then added to each well and incubated at 2–3 °C for 5 min. The plate was then quickly transferred to a FLIPR Tetra High-Throughput Cellular Screening System (Molecular Devices). Using the internal liquid handling system of the FLIPR, 1 µL 0.5 mM Suc-AAPF-AMC (Chymotrypsin Substrate II, Millipore-Sigma) dissolved in 0.55 M LiCl/2,2,2-trifluoroethanol was added to each well, which was then mixed for 5 s, followed by immediate fluorescence measurements every 1 s for 330 s using a 360–380 nm excitation LED module and a 400–460 nm emission filter. Final concentrations of the plate include 5 nM cyclophilin, 0.25% DMSO, 25 µM α-chymotrypsin, 5 µM Suc-AAPF-AMC. Raw fluorescence data was analyzed by non-linear regression analysis with Prism v.9 by fitting one-phase association curves to each well. […] Rate constants calculated for each well (s^−1) were then normalized to substrate only (no prolyl-isomerase) and enzyme + substrate only controls. IC50 values were calculated as the value at which 50% inhibition was achieved on the non-linear regression fitted curve of each compound.

CypB = target: T4, CypB (Homo sapiens, UniProt P23284); experiment: biochemical; conditions: for prolyl-isomerase activity (raw dose-response value): CypB
T4 construct: PPIB (UniProtKB Entry P23284: residues 34–216); His6 with TEV site (2BT vector leader) (N); made in house; host or cells: E. coli BL21(DE3)
Protocol: as §2

[1] = wild-type NKTR, read-out: Wild-Type Cyclophilin Prolyl Isomerase Inhibition IC50 Values, NKTR
[2] = wild-type CypC, read-out: Wild-Type Cyclophilin Prolyl Isomerase Inhibition IC50 Values, CypC
[3] = wild-type CypB, read-out: Wild-Type Cyclophilin Prolyl Isomerase Inhibition IC50 Values, CypB

T3 sequence (Q9UNP9 131-301): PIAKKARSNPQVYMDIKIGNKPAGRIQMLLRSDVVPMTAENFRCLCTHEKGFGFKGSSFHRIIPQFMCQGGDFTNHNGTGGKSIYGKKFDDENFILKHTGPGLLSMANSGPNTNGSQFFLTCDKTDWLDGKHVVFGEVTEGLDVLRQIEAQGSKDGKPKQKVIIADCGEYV
T2 sequence (P45877 24-212): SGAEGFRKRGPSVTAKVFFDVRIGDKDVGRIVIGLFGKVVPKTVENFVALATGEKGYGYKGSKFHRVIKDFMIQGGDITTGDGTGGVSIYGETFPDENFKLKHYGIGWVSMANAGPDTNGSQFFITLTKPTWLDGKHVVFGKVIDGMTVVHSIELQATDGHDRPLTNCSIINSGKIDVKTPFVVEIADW
T4 sequence (P23284 34-216): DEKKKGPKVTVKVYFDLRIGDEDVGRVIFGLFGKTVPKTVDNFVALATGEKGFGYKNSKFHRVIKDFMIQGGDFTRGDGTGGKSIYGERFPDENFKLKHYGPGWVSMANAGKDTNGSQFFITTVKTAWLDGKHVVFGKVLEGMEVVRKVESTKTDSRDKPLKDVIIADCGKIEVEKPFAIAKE
Cyp40, sequence (Q08752 1-183): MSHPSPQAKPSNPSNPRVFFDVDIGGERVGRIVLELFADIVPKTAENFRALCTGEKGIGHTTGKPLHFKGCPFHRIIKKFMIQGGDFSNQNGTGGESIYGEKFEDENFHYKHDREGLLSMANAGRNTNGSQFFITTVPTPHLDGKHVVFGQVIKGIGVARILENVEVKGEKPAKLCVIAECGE

Compound: NCCOCCNC(=O)[C@@H]1CCNC(=O)/C=C/C(=O)N2CCC[C@](Cc3ccccc3)(C2)C(=O)N[C@@H](Cc2ccc(C(=O)c3ccccc3)cc2)C(=O)NCc2ccccc2CC(=O)N1 [Compound B1]
- prolyl-isomerase activity (raw dose-response value) (NKTR; dose 6.125 µM): 0.03455 and 0.03286 and 0.03325
- prolyl-isomerase activity (raw dose-response value) (NKTR; dose 12.5 µM): 0.03629 and 0.03152 and 0.03174
- prolyl-isomerase activity (raw dose-response value) (NKTR; dose 25 µM): 0.03462 and 0.03246 and 0.03111
- prolyl-isomerase activity (raw dose-response value) (NKTR; dose 50 µM): 0.03275 and 0.03195 and 0.02857
- prolyl-isomerase activity (raw dose-response value) (NKTR; dose 100 µM): 0.02401 and 0.02915 and 0.0269
- IC50 (NKTR; [1]): > 100 µM
- prolyl-isomerase activity (raw dose-response value) (CypC; dose 0.00244141 µM): 0.04561 and 0.0417 and 0.04308
- prolyl-isomerase activity (raw dose-response value) (CypC; dose 0.00488281 µM): 0.04435 and 0.04111 and 0.04239
- prolyl-isomerase activity (raw dose-response value) (CypC; dose 0.00976562 µM): 0.04356 and 0.0401 and 0.04072
- prolyl-isomerase activity (raw dose-response value) (CypC; dose 0.0195312 µM): 0.03963 and 0.03695 and 0.03646
- prolyl-isomerase activity (raw dose-response value) (CypC; dose 0.0390625 µM): 0.035 and 0.03188 and 0.03161
- prolyl-isomerase activity (raw dose-response value) (CypC; dose 0.078125 µM): 0.02847 and 0.0253 and 0.02646
- prolyl-isomerase activity (raw dose-response value) (CypC; dose 0.15625 µM): 0.02267 and 0.02159 and 0.02162
- prolyl-isomerase activity (raw dose-response value) (CypC; dose 0.3125 µM): 0.01917 and 0.0189 and 0.01739
- prolyl-isomerase activity (raw dose-response value) (CypC; dose 0.625 µM): 0.01677 and 0.01627 and 0.01518
- prolyl-isomerase activity (raw dose-response value) (CypC; dose 1.25 µM): 0.01345 and 0.01256 and 0.01367
- prolyl-isomerase activity (raw dose-response value) (CypC; dose 2.5 µM): 0.009144 and 0.00999 and 0.01009
- IC50 (CypC; [2]): 0.079 µM
- prolyl-isomerase activity (raw dose-response value) (CypE; dose 0.00244141 µM): 0.1145 and 0.1032 and 0.1074
- prolyl-isomerase activity (raw dose-response value) (CypE; dose 0.00488281 µM): 0.1194 and 0.1024 and 0.1063
- prolyl-isomerase activity (raw dose-response value) (CypE; dose 0.00976562 µM): 0.1019 and 0.09727 and 0.09617
- prolyl-isomerase activity (raw dose-response value) (CypE; dose 0.0195312 µM): 0.09053 and 0.08335 and 0.08401
- prolyl-isomerase activity (raw dose-response value) (CypE; dose 0.0390625 µM): 0.08777 and 0.07578 and 0.07602
- prolyl-isomerase activity (raw dose-response value) (CypE; dose 0.078125 µM): 0.06552 and 0.06127 and 0.05879
- prolyl-isomerase activity (raw dose-response value) (CypE; dose 0.15625 µM): 0.05184 and 0.04744 and 0.04506
- prolyl-isomerase activity (raw dose-response value) (CypE; dose 0.3125 µM): 0.04144 and 0.0397 and 0.03654
- prolyl-isomerase activity (raw dose-response value) (CypE; dose 0.625 µM): 0.03167 and 0.02791 and 0.02701
- prolyl-isomerase activity (raw dose-response value) (CypE; dose 1.25 µM): 0.02174 and 0.02048 and 0.01944
- prolyl-isomerase activity (raw dose-response value) (CypE; dose 2.5 µM): 0.0149 and 0.01299 and 0.01222
- IC50 (CypE; wild-type CypE, read-out: Wild-Type Cyclophilin Prolyl Isomerase Inhibition IC50 Values, CypE): 0.099 µM
- prolyl-isomerase activity (raw dose-response value) (Cyp40; Cyp40, dose 0.0228624 µM): 0.05537 and 0.05091 and 0.0526
- prolyl-isomerase activity (raw dose-response value) (Cyp40; Cyp40, dose 0.0685871 µM): 0.04831 and 0.04914 and 0.04761
- prolyl-isomerase activity (raw dose-response value) (Cyp40; Cyp40, dose 0.205761 µM): 0.03428 and 0.03147 and 0.03197
- prolyl-isomerase activity (raw dose-response value) (Cyp40; Cyp40, dose 0.617284 µM): 0.02396 and 0.01982 and 0.02092
- prolyl-isomerase activity (raw dose-response value) (Cyp40; Cyp40, dose 1.85185 µM): 0.01751 and 0.01672 and 0.01432
- prolyl-isomerase activity (raw dose-response value) (Cyp40; Cyp40, dose 5.55556 µM): 0.0143 and 0.01339 and 0.01386
- prolyl-isomerase activity (raw dose-response value) (Cyp40; Cyp40, dose 16.6667 µM): 0.01332 and 0.01439 and 0.01303
- prolyl-isomerase activity (raw dose-response value) (Cyp40; Cyp40, dose 50 µM): 0.01384 and 0.01317 and 0.01466
- IC50 (Cyp40; Wild-Type Cyclophilin Prolyl Isomerase Inhibition IC50 Values, Cyp40, wild-type Cyp40): 0.05 µM
- prolyl-isomerase activity (raw dose-response value) (CypB; dose 0.00114312 µM): 0.08676 and 0.07612 and 0.1045
- prolyl-isomerase activity (raw dose-response value) (CypB; dose 0.00342935 µM): 0.09293 and 0.08942 and 0.1133
- prolyl-isomerase activity (raw dose-response value) (CypB; dose 0.0102881 µM): 0.05857 and 0.07024 and 0.08235
- prolyl-isomerase activity (raw dose-response value) (CypB; dose 0.0308642 µM): 0.06507 and 0.05219 and 0.06265
- prolyl-isomerase activity (raw dose-response value) (CypB; dose 0.0925926 µM): 0.05131 and 0.04637 and 0.04858
- prolyl-isomerase activity (raw dose-response value) (CypB; dose 0.277778 µM): 0.03303 and 0.03453 and 0.03517
- prolyl-isomerase activity (raw dose-response value) (CypB; dose 0.833333 µM): 0.03176 and 0.0219 and 0.02127
- prolyl-isomerase activity (raw dose-response value) (CypB; dose 2.5 µM): 0.01492 and 0.01697 and 0.01392
- IC50 (CypB; [3]): 0.03 µM

Compound: NC(=O)[C@@H]1CCNC(=O)/C=C/C(=O)N2CCC[C@](Cc3ccccc3)(C2)C(=O)N[C@@H](Cc2ccc(-c3cccc(B(O)O)c3)cc2)C(=O)NCc2ccccc2CC(=O)N1 [Compound C6A]
- IC50 (NKTR; prolyl-isomerase inhibition, 5 nM cyclophilin, read-out: IC50 NKTR): > 10 µM
- IC50 (NKTR; [1]): 5 µM
- IC50 (CypC; prolyl-isomerase inhibition, 5 nM cyclophilin, read-out: IC50 CypC): ~5 µM
- IC50 (CypC; [2]): 5 µM
- IC50 (CypE; prolyl-isomerase inhibition, 5 nM cyclophilin, read-out: IC50 CypE): ~4 µM and 4 µM
- IC50 (CypB; prolyl-isomerase inhibition, 5 nM cyclophilin, read-out: IC50 CypB): ~8 µM
- IC50 (CypB; [3]): 8 µM
